Drawing on patent US8592426B2, “Aryl-benzocycloalkyl amide derivatives” (Hoffmann—La Roche Inc., priority 2011, dated 2013), this text covers IC50 and Ki for 20 compounds.

The target of experiment [1] is T1, Bradykinin-1 receptor (Homo sapiens (Human), UniProt P46663). Description: Calcium mobilization assay (FLIPR, Fluo-4) in GeneBLAzer Bradykinin (B1)-NFAT-bla CHO-K1 cells. The experiment is classed as cell-based. As to conditions: antagonist activity; CHO-K1 cells stably overexpressing the human bradykinin 1 receptor; read-out: Ca mobilization Assay IC50. The method, then:
Calcium Mobilization Assay
GeneBLAzer® Bradykinin (B1)-NFAT-bla CHO-K1 cells (from Invitrogen) stably overexpressing the human bradykinin 1 receptor were cultured in DMEM (high glucose) supplemented with 10% dialysed FBS, 1% NEAA (non essential amino acids) 1% penicillin/streptomycin, 1% G418 and 0.1 mg/ml zeocin.
For the assay cells were grown overnight in 384-well black clear flat bottom polystyrene plates (Costar) at 37° C. at 5% CO2. After washing with DMEM, 20 mM Hepes, 2.5 mM probenecid, 0.1% BSA (DMEM assay buffer) cells were loaded with 4 μM Fluo-4 in the same DMEM assay buffer for 2 hours at 30° C. Excess dye was removed and cells were washed with DMEM assay buffer. 384-well compound plates were prepared with DMEM assay buffer/0.5% DMSO with or without various concentrations of test compounds. Usually compounds were tested for agonist and antagonist activity.
Test compounds were added to the assay plate and agonist activity was monitored as fluorescence for 80 seconds with a FLIPR (488 nm excitation; 510-570 nm emission; Molecular Devices). After 20-30 min. of incubation at 30° C., 20 nM […] (R&D; Roche) was added and fluorescence was monitored again for 80 seconds. Increases in intracellular calcium are reported as maximum fluorescence after agonist exposure minus basal fluorescence before exposure.
In general terms: Calcium flux is commonly read through the fluorescence of an indicator in the cells.

Experiment [2] has as its target T1, Bradykinin-1 receptor. Description: Receptor binding assay (B1R Binding Assay), [3H]-Kallidin (Des Arg10, Leu9) displacement. Particulars: membranes from CHO-K1 cells overexpressing Bradykinin-1 receptor; 6 nM radioligand. The method, then:
Binding assays were done with membranes from CHO-K1 cells overexpressing Bradykinin-1 receptor.
To determine non-specific binding 10 μM Lys-(Des-Arg^9)-Bradykinin (Bachem) was added. Membranes were harvested through GF/B (glass fiber filter; PerkinElmer) plates, equilibrated with 0.5% polyethylenimine, air dried at 50° C. for 2 h. Radioactivity was determined by counting in a topcounter (NXT Packard).

T1 sequence (P46663 whole entry): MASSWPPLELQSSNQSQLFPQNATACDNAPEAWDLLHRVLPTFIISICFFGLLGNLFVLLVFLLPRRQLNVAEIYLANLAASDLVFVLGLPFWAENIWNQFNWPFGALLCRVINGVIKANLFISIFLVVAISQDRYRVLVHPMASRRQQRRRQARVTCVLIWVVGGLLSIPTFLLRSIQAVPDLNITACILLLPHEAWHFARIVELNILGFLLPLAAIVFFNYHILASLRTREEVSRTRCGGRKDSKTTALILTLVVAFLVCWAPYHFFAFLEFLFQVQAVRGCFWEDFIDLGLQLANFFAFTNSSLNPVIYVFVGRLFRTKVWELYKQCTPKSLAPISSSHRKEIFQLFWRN

A word on the IC50: it is the point on the concentration scale where inhibition reaches its midpoint. In general, Ki refers to a dissociation constant, usually derived from enzyme kinetics or from competition with a known ligand. High values mean lower affinity, low ones higher affinity. Turning to `Cn1nnc(-c2c(F)cc(Cl)cc2-c2ccc3c(c2)SCC3NC(=O)C2(N)CC2)n1` (racemic) [Example 61, 1-Amino-cyclopropanecarboxylic acid{(rac)-6-[5-chloro-3-fluoro-2-(2-methyl-2H-tetrazol-5-yl)-phenyl]-2,3-dihydro-benzo[b]thiophen-3-yl}-amide], on Bradykinin-1 receptor [1], the IC50 turned out to be 17.4 nM. On Bradykinin-1 receptor [2], the Ki came to 264 nM.

Regarding `Cc1nc(-c2c(F)cc(Cl)cc2-c2ccc3c(c2)CC[C@@H]3NC(=O)C2(NC(=O)c3ccnnc3)CC2)no1` [Example 27, Pyridazine-4-carboxylic acid(1-{(S)-5-[5-chloro-3-fluoro-2-(5-methyl-[1,2,4]oxadiazol-3-yl)-phenyl]-indan-1-ylcarbamoyl}-cyclopropyl)-amide], the IC50 on Bradykinin-1 receptor [1] is 0.4 nM. Further, the inhibitory constant (Ki) on Bradykinin-1 receptor [2] is 3.6 nM.

For `Cc1nc(-c2c(F)cc(Cl)cc2-c2cnc3c(c2)CCC3NC(=O)C2(N)CC2)no1` (racemic) [Example 37, 1-Amino-cyclopropanecarboxylic acid{(rac)-3-[5-chloro-3-fluoro-2-(5-methyl-[1,2,4]oxadiazol-3-yl)-phenyl]-6,7-dihydro-5H-[1]pyrindin-7-yl}-amide], the IC50 on Bradykinin-1 receptor [1] was determined as 301 nM. Besides, the affinity at Bradykinin-1 receptor [2] corresponds to a Ki of 591 nM.

For the compound `COC(=O)c1c(Cl)cccc1-c1ccc2c(c1)CCC2NC(=O)C1(NC(=O)C(F)(F)F)CC1` (racemic) [Example 3, (rac)-2-Chloro-6-(1-{[1-(2,2,2-trifluoro-acetylamino)-cyclopropanecarbonyl]-amino}-indan-5-yl)-benzoic acid methyl ester], the IC50 at Bradykinin-1 receptor [1] stood at 47.4 nM. The Ki at Bradykinin-1 receptor [2] turned out to be 123 nM.

As to `Cc1nc(-c2c(F)cc(Cl)cc2-c2cnc3c(c2)CCC3NC(=O)C2(NC(=O)c3ccnnc3)CC2)no1` (single isomer, unassigned) [Example 41, Pyridazine-4-carboxylic acid(1-{(S or R) 3-[5-chloro-3-fluoro-2-(5-methyl-[1,2,4]oxadiazol-3-yl)-phenyl]-6,7-dihydro-5H-[1]pyrindin-7-ylcarbamoyl}-cyclopropyl)-amide], the IC50 at Bradykinin-1 receptor [1] came to 0.2 nM. At Bradykinin-1 receptor [2], affinity was put at a Ki of 4 nM.

Take `COc1cc(C(=O)NC2(C(=O)NC3CCc4cc(-c5cc(Cl)cc(F)c5-c5noc(C)n5)cnc43)CC2)on1` (racemic) [Example 38, 3-Methoxy-isoxazole-5-carboxylic acid(1-{(rac)-3-[5-chloro-3-fluoro-2-(5-methyl-[1,2,4]oxadiazol-3-yl)-phenyl]-6,7-dihydro-5H-[1]pyrindin-7-ylcarbamoyl}-cyclopropyl)-amide]: the concentration for half-maximal inhibition (IC50) on Bradykinin-1 receptor [1] was found to be 0.2 nM. At Bradykinin-1 receptor [2], this compound registered an inhibition constant (Ki) of 3 nM.

As for `Cc1nc(-c2c(F)cc(Cl)cc2-c2cc(F)c3c(c2)CCC3NC(=O)C2(NC(=O)C(F)(F)F)CC2)no1` (racemic) [Example 16, 1-(2,2,2-Trifluoro-acetylamino)-cyclopropanecarboxylic acid{(rac)-5-[5-chloro-3-fluoro-2-(5-methyl-[1,2,4]oxadiazol-3-yl)-phenyl]-7-fluoro-indan-1-yl}-amide], the IC50 on Bradykinin-1 receptor [1] amounted to 0.5 nM. The same compound displayed a Ki on Bradykinin-1 receptor [2] of 11 nM.

As for `COc1cc(C(=O)NC2(C(=O)N[C@H]3CCc4cc(-c5cc(Cl)cc(F)c5-c5noc(C)n5)ccc43)COC2)on1` [Example 53, 3-Methoxy-isoxazole-5-carboxylic acid (3-{(S)-5-[5-chloro-3-fluoro-2-(5-methyl-[1,2,4]oxadiazol-3-yl)-phenyl]-indan-1-ylcarbamoyl}-oxetan-3-yl)-amide], the IC50 on Bradykinin-1 receptor [1] stood at 0.4 nM. This compound registered a Ki at Bradykinin-1 receptor [2] of 3.6 nM.

As for `Cn1nnc(-c2c(F)cc(Cl)cc2-c2ccc3c(c2)SCC3NC(=O)C2(NC(=O)c3ccno3)CC2)n1` (racemic) [Example 64, Isoxazole-5-carboxylic acid(1-{(rac)-6-[5-chloro-3-fluoro-2-(2-methyl-2H-tetrazol-5-yl)-phenyl]-2,3-dihydro-benzo[b]thiophen-3-ylcarbamoyl}-cyclopropyl)-amide], the IC50 at Bradykinin-1 receptor [1] came to 0.5 nM. This compound displayed an inhibition constant (Ki) at Bradykinin-1 receptor [2] of 7.1 nM.

As to `Cc1nc(-c2c(F)cc(Cl)cc2-c2ccc3c(c2)CCC3NC(=O)C2(NC(=O)C(F)(F)F)CC2)no1` (racemic) [Example 4, 1-(2,2,2-Trifluoro-acetylamino)-cyclopropanecarboxylic acid (rac)-{5-[5-chloro-3-fluoro-2-(5-methyl-[1,2,4]oxadiazol-3-yl)-phenyl]-indan-1-yl}-amide], the IC50 on Bradykinin-1 receptor [1] was determined as 2 nM. This compound also had a Ki at Bradykinin-1 receptor [2] of 20.2 nM.

As for `Cc1nc(-c2c(F)cc(Cl)cc2-c2ccc3c(c2)CC[C@@H]3NC(=O)C2(NC(=O)c3cncnc3)COC2)no1` [Example 50, Pyrimidine-5-carboxylic acid (3-{(S)-5-[5-chloro-3-fluoro-2-(5-methyl-[1,2,4]oxadiazol-3-yl)-phenyl]-indan-1-ylcarbamoyl}-oxetan-3-yl)-amide], the concentration for half-maximal inhibition (IC50) on Bradykinin-1 receptor [1] was found to be 0.4 nM. The compound further displayed a Ki at Bradykinin-1 receptor [2] of 4.8 nM.

`Cn1nnc(-c2c(F)cc(Cl)cc2-c2ccc3c(c2)CC[C@@H]3NC(=O)C2(NC(=O)C(F)(F)F)COC2)n1` [Example 8, 3-(2,2,2-Trifluoro-acetylamino)-oxetane-3-carboxylic acid{(S)-5-[5-chloro-3-fluoro-2-(2-methyl-2H-tetrazol-5-yl)-phenyl]-indan-1-yl}-amide]: the IC50 at Bradykinin-1 receptor [1] was found to be 24.4 nM. On Bradykinin-1 receptor [2], this compound had a Ki of 30.3 nM.

In the case of `Cn1nnc(-c2c(F)cc(Cl)cc2-c2cnc3c(c2)CCC3NC(=O)C2(NC(=O)c3ccno3)CC2)n1` (racemic) [Example 57, Isoxazole-5-carboxylic acid(1-{(rac)-3-[5-chloro-3-fluoro-2-(2-methyl-2H-tetrazol-5-yl)-phenyl]-6,7-dihydro-5H-[1]pyrindin-7-ylcarbamoyl}-cyclopropyl)-amide], on Bradykinin-1 receptor [1], the concentration for half-maximal inhibition (IC50) is 0.4 nM. This compound came in with a Ki on Bradykinin-1 receptor [2] of 5.8 nM.

As to `COc1cc(C(=O)NC2(C(=O)NC3COc4cc(-c5cc(Cl)cc(F)c5-c5noc(C)n5)ccc43)CC2)on1` (racemic) [Example 48, 3-Methoxy-isoxazole-5-carboxylic acid(1-{(rac)-6-[5-chloro-3-fluoro-2-(5-methyl-[1,2,4]oxadiazol-3-yl)-phenyl]-2,3-dihydro-benzofuran-3-ylcarbamoyl}-cyclopropyl)-amide], at Bradykinin-1 receptor [1], the IC50 was 4 nM. The compound further yielded a Ki on Bradykinin-1 receptor [2] of 23.8 nM.

Take `Cc1nnc(C(=O)NC2(C(=O)NC3CSc4cc(-c5cc(Cl)cc(F)c5-c5nnn(C)n5)ccc43)CC2)o1` (racemic) [Example 62, 5-Methyl-[1,3,4]oxadiazole-2-carboxylic acid(1-{(rac)-6-[5-chloro-3-fluoro-2-(2-methyl-2H-tetrazol-5-yl)-phenyl]-2,3-dihydro-benzo[b]thiophen-3-ylcarbamoyl}-cyclopropyl)-amide]: the half-inhibitory concentration (IC50) at Bradykinin-1 receptor [1] is 4.8 nM. This compound registered an inhibition constant Ki on Bradykinin-1 receptor [2] of 12.2 nM.

`COc1ncc(C(=O)NC2(C(=O)NC3CCc4cc(-c5cc(Cl)cc(F)c5-c5nnn(C)n5)cnc43)CC2)cn1` (racemic) [Example 56, 2-Methoxy-pyrimidine-5-carboxylic acid(1-{(rac)-3-[5-chloro-3-fluoro-2-(2-methyl-2H-tetrazol-5-yl)-phenyl]-6,7-dihydro-5H-[1]pyrindin-7-ylcarbamoyl}-cyclopropyl)-amide]: the IC50 on Bradykinin-1 receptor [1] came to 0.2 nM. This compound also registered a Ki on Bradykinin-1 receptor [2] of 4.5 nM.

For the compound `Cn1nnc(-c2c(F)cc(Cl)cc2-c2ccc3c(c2)CCC3(C)NC(=O)C2(NC(=O)C(F)(F)F)CC2)n1` (racemic) [Example 18, 1-(2,2,2-Trifluoro-acetylamino)-cyclopropanecarboxylic acid{(rac)-5-[5-chloro-3-fluoro-2-(2-methyl-2H-tetrazol-5-yl)-phenyl]-1-methyl-indan-1-yl}-amide], the IC50 at Bradykinin-1 receptor [1] worked out at 0.5 nM. Further, the Ki on Bradykinin-1 receptor [2] was 6.7 nM.

For `Cn1nnc(-c2c(F)cc(Cl)cc2-c2ccc3c(c2)OCC3NC(=O)C2(NC(=O)C(F)(F)F)CC2)n1` (racemic) [Example 20, 1-(2,2,2-Trifluoro-acetylamino)-cyclopropanecarboxylic acid{(rac)-6-[5-chloro-3-fluoro-2-(2-methyl-2H-tetrazol-5-yl)-phenyl]-2,3-dihydro-benzofuran-3-yl}-amide], the IC50 on Bradykinin-1 receptor [1] was 3.6 nM. Also, affinity on Bradykinin-1 receptor [2] was put at a Ki of 24 nM.

For `COC(=O)c1ccccc1-c1ccc2c(c1)CCC2NC(=O)C1(NC(=O)C(F)(F)F)CC1` (racemic) [Example 1, (rac)-2-(1-{[1-(2,2,2-Trifluoro-acetylamino)-cyclopropanecarbonyl]-amino}-indan-5-yl)-benzoic acid methyl ester], the IC50 on Bradykinin-1 receptor [1] is 2250 nM. At Bradykinin-1 receptor [2], the Ki came to 2170 nM.

With `COC(=O)c1c(Cl)cccc1-c1ccc2c(c1)CC[C@@H]2NC(=O)C1(NC(=O)C(F)(F)F)COC1` [Example 6, 2-Chloro-6-((S)-1-{[3-(2,2,2-trifluoro-acetylamino)-oxetane-3-carbonyl]-amino}-indan-5-yl)-benzoic acid methyl ester], on Bradykinin-1 receptor [1], the IC50 was 455 nM. At Bradykinin-1 receptor [2], this compound gave an inhibition constant Ki of 381 nM.
